Key:
[1] = test system: HGPRT knockout cell line of Example 14; details: after 9 days of 6-TG treatment, in comparison to the TDF cell line of Example 3; FIG. 20
[2] = test system: alkaline phosphatase (ALP); assay: ALP activity (early osteogenic induction ability), OIM or GM culture; details: 1 ng/ml, 2 ng/ml and 5 ng/ml of BMP-2, 7 days after induction of osteogenesis, versus control not treated with BMP-2; FIG. 4
Protocol: After 3 days and 7 days of the culturing, samples were washed twice with a PBS solution, and dissolved in a cell lysis buffer to which 0.1% Triton X-10 was added.
Lysed cells were centrifuged at 4° C. and 13000 rpm for 30 minutes, and then a supernatant was recovered and quantitated by a Bradford assay. The ALP activity was measured at 405 nm for the same amount of proteins using an ALP kit (AnaSpec), and the results are shown in FIG. 3.

[3] = test system: TDF cell line of Example 3; assay: Evaluation of apoptosis by gancyclovir treatment (HSV-tk kill switch); type: cell-based; details: 0, 50 and 500 μg/ml, 72 hours to 124 hours; depending on concentration and time; FIGS. 12 and 13
Protocol: TDF cell line of Example 3, a cell line of Example 3 was treated with gancyclovir in concentrations of 0 μg/ml, 50 μg/ml and 500 μg/ml, respectively, and the number of cells was observed and analyzed for a period of 72 hours to 124 hours, as shown in FIGS. 12 and 13.

Molecule: Nc1nc2[nH]cnc2c(=S)[nH]1 [Example 6-TG, 6-tioguanine]
- cell survival under 6-TG treatment [1]: more cells survived

Molecule: BMP-2
- ALP activity of normal TDF cell line with BMP-2 injected from the outside [2]: statistically significant ALP activity was not observed

Molecule: Nc1nc(O)c2ncn(COC(CO)CO)c2n1 [ganciclovir]
- cell growth / number of cells under gancyclovir [3]: cell growth is inhibited

Reference: US20200046774A1, “COMPOSITION FOR PREVENTING OR TREATING BONE DISEASES WHICH HAS EXCELLENT BONE REGENERATION EFFECT” (KOREA UNIVERSITY RESEARCH AND BUSINESS FOUNDATION, priority 2017, published 2020)
